Here are results for 3 molecules from US20250127180A1, “PARTICLES COMPRISING DOUBLE STRANDED RNA AND USE OF SAME IN AGRICULTURE” (priority 2022, published 2025).

The assay concerns B. cinerea. The assay can be described thus: In-vitro fungal growth, O.D at 600 nm. It counts as cell-based, Botrytis cinerea. The protocol: To test the effect of commonly used fungicide on B. cinerea growth, ‘Procloraz’ (Sportak, Bayer Cropscience LLC, Monheim am Rhein, Germany) or ‘fludioxonil’ (scholar, Hod-Hasharon, Israel) fungicide were diluted in 1% SMB to final concentrations of 1-1000 ppb or 0.01-1,000 ppb, respectively.
The plates were incubated at room temperature and O.D measurement at 600 nm was taken every hour for 48-72 hours using Synergy LX plate reader (BioTek, Winooski, Vermont, United States). The absorbance of three wells of repeats was averaged together and was background-corrected by subtracting the average absorbance of media alone at time zero (Galsurker et al., 2020; Langvad, 1999). Growth inhibition percentage was calculated (O.D in control well−O.D in treatment well)/O.D in control well×100) (Meletiadis et al., 2003). Coefficient treatment interaction (CTI) was calculated as follows: CTI=AB/(A×B). AB is the ratio of the treatment combination to control; A, or B is the ratio of the single treatment to control. Coefficient treatment interaction is considered as synergistic when CTI<1 (Chen et al., 2014).

Each structure is given as a SMILES string.

As to `N#Cc1c[nH]cc1-c1cccc2c1OC(F)(F)O2` [Fludioxonil], the B. cinerea growth result (0.01-1,000 ppb, data not shown) was “reduced B. cinerea growth in a non-linear manner”.

In the case of `CCCN(CCOc1c(Cl)cc(Cl)cc1Cl)C(=O)n1ccnc1` [Prochloraz, prochloraz], the “fungal growth (O.D)” value (1-1,000 ppb in growth media) is on record as “dose-dependent reduction of fungal growth”.

For `CC(C)[C@@H](C)/C=C/[C@@H](C)[C@H]1CC[C@H]2C3=CC=C4C[C@@H](O)CC[C@]4(C)[C@H]3CC[C@]12C` [ergosterol], the fungal growth entry (ergosterol added to control) was “did not alter fungal growth”.
